Laboratory results as given in patent publication US20260257992A1, “AGONISTS OF SMALL HETERODIMER PARTNER FOR CANCER THERAPY” (THE BOARD OF TRUSTEES OF THE UNIVERSITY OF ILLINOIS, priority 2023, published 2026).

What was measured:
[1] = target: T1, full length NR0B2 (Homo sapiens, UniProt Q15466); assay: Thermal shift assay with recombinant NR0B2; format: binding; conditions: 1 mM ligand, 6 μM purified NR0B2; apo/unliganded 46.74±0.22
T1 construct: A gene containing a hexa-His-TEV fusion with full length NR0B2 in pET21(a)+ was transformed in E. coli BL21(DE3); hexa-His with TEV site; made in house; host or cells: E. coli BL21(DE3)
T1 sequence (Q15466 1-257): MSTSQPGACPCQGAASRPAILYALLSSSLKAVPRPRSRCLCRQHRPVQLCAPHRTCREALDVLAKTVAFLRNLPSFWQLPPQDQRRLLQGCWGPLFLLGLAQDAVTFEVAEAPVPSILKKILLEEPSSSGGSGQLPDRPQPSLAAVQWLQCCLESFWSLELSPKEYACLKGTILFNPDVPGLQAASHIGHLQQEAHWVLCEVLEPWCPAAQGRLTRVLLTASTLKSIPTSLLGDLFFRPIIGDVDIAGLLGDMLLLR
Procedure: Protein expression, purification, and thermal shift assay. A gene containing a hexa-His-TEV fusion with full length NR0B2 in pET21(a)+ was transformed in E. coli BL21(DE3). A single colony was used to inoculate a 100 mL starter culture of LB broth containing 100 μg/mL ampicillin, which was allowed to grow overnight with shaking at 37° C. This starter culture was used to inoculate flasks containing autoinducing media, which were grown at 37° C. with shaking until they reached an OD^600 of 0.8. Subsequently, the temperature was reduced to 16° C. and cells were allowed to grow for another 24 hours. After harvesting by centrifugation, cells were resuspended at 15 mL/g cell paste in a buffer comprised of 25 mM HEPES pH 8.0, 250 mM NaCl, 20 mM imidazole pH 8.0, 5% glycerol, 0.5 mM TCEP, and Roche EDTA-free protease inhibitor cocktail. Cells were lysed by sonication then centrifuged at 18,000×g for 30 minutes to remove insoluble material. The lysate was loaded onto a gravity flow Ni-NTA column, washed with 5 column volumes (CVs) of resuspension buffer, and protein was eluted using the resuspension buffer supplemented with 500 mM imidazole. Collected protein was dialyzed overnight in the resuspension buffer without imidazole then concentrated and purified on a Superdex 200 HiLoad 200 16/600 size exclusion column. […]

[2] = tested on: 4T1 metastatic lesions; assay: Outgrowth of established 4T1 lung metastatic lesions (intravenous graft); format: in vivo, mouse; conditions: for Outgrowth of 4T1 metastatic lesions, combined with αPDL1: compound combined with αPDL1; for Outgrowth of established 4T1 metastatic lesions, single agent: lesions established 3 d before treatment
Excerpt: FIG. 3A-3F. DSHN, a tool small molecule agonist of NR0B2 reduces macrophage/dendritic cell induced Treg expansion and tumor growth in murine models. […] (B) Dendritic cells (left-CD11B^+; CD11C^+) and CD4^+ T cells (right) were isolated from MMTV-PyMT tumors by FACS, and treated with vehicle or DSHN for 3d. The resulting frequency of Treg (CD4^+; CD25^+; FoxP3^+) was quantified by flow cytometry (right graph), (N=3-5/group, t test). […] The percentage of divided CD8+ T cells in the second round was quantified. (D) DSHN increases efficacy of αPDL1 therapy on orthotopic E0771 tumors. An optimal number of E0771 cells were grafted into FoxP3-EGFP mice and allowed to grow until tumors reached 100 mm^3. Mice were euthanized on day 19 (waterfall plot, Fisher's exact test). (E) DSHN increases efficacy of αPDL1 therapy on orthotopic 4T1 tumors. 4T1 cells were orthotopically grafted into mice and allowed to establish for 5d prior to treatment start. Mice were euthanized on day 16 (waterfall plot, Fisher's exact test). (F) DSHN reduces metastatic outgrowth of 4T1 tumors and enhances efficacy of αPDL1 compared to placebo (p) (2-way ANOVA followed by Šidák's multiple comparison test for day 16). 4T1 cells were grafted intravenously, and lung metastatic lesions allowed to establish for 3d before treatment commenced. At the end of the study, lungs were removed and imaged ex vivo, quantified data indicated (N=10, 1-way ANOVA followed by Newman-Keuls multiple comparison test). Representative luciferase images shown to the right. * or different letters denote P<0.05 using indicated statistical test.
FIG. 7A-7I. DSHN-OMe reduces tumor and metastatic growth in murine models, in a myeloid cell-NR0B2 dependent manner. (A) E0771 cells were grafted into control mice (NR0B2^+/+; LysMCre^+) or mice where NR0B2 was knocked out in myeloid immune cells (NR0B2^fl/fl; LysMCre^+). 8 days post-graft, daily treatment with placebo or DSHN-OMe was initiated and subsequent tumor growth followed through time. Different letters denote statistical difference on the final measurement (day 21, 2-Way ANOVA followed by Šidák's post-hoc, N=5-8). (B) Waterfall plot illustration of data in (A) showing tumor volume at final day of measurement. Asterisk indicates significant difference (Chi-squared test, P<0.05). (C) Lewis Lung cells were grafted into control mice (NR0B2^+/+; LysMCre^+) or mice where NR0B2 was knocked out in myeloid immune cells (NR0B2^fl/fl; LysMCre^+). 10 days post-graft, daily treatment with placebo or DSHN-OMe was initiated and subsequent tumor growth followed through time. […] (G) EMT6 metastatic lungs were assessed for Ki67 mRNA and (H) FOXP3 mRNA. (I) EMT6 metastatic lungs were assessed for CD8+ cytotoxic T cells (CD8+). […]

SMILES | NR0B2 thermal melt temperature (TM) [1] [°C] | Outgrowth of 4T1 metastatic lesions, combined with αPDL1 [2] | Outgrowth of established 4T1 metastatic lesions, single agent [2]
CCN(CC)S(=O)(=O)c1cccc2cc(C(=O)O)c(O)cc12 [DSHN, reference compound] | 46.34±0.51 | reduced outgrowth even further than DSHN alone | slowed the growth of metastatic lesions
CCN(CC)S(=O)(=O)c1cccc2cc(C(=O)OC)c(O)cc12 [DSHN-OMe, Methyl 5-(N,N-diethylsulfamoyl)-3-hydroxy-2-naphthoate] | 46.92±0.17 | did not significantly influence the effects of DSHN-OMe | significantly reduced the outgrowth of established 4T1 metastatic lesions
